Assay [1] is described as follows: Binding affinity to human telomeric duplex DNA.
A short description of assay [2]: Binding affinity to human telomeric G-quadruplex DNA.
The species named for assay [3] is Homo sapiens. In words: Increase in thermal stability of human telomeric i-Motif DNA assessed as change in melting temperature at pH 5.5.
The species entered for assay [4] is Homo sapiens. In words: Binding to human telomeric i-Motif DNA by fluorescence titration method.
The nature of assay [5]: Binding affinity to d(C5T3)3C5 i-Motif DNA (unknown origin) by UV titration method.
Assay [6] in a line: Binding affinity to bcl-2 i-Motif DNA (unknown origin) by fluorescence based assay.
Assay [7] in a line: Antitumor activity against human GRANTA-519 cells xenografted in mouse assessed as inhibition of tumor growth co-administered with etoposide. It is filed as functional. In general terms: A xenograft is tissue or cells of one species grown in another, often human tumour cells in immunodeficient mice.
The nature of assay [8]: Reduction in bcl-2 expression in human GRANTA-519 cells xenografted in mouse. Format: functional. The following applies: dose or concentration not given here.
The species named for assay [9] is Homo sapiens. The experiment in a line: Binding affinity to human telomeric i-Motif DNA assessed as change in melting temperature at pH 6.8 by FRET assay.
The species named for assay [10] is Homo sapiens. In words: Binding affinity to human telomeric G-quadruplex DNA assessed as change in melting temperature by FRET assay.

Molecules are shown by their SMILES.

The term Kd denotes the constant that tells how readily two partners part at equilibrium. A lower Kd goes with a tighter complex. As usually defined, the ΔTm is the change in melting temperature against a reference sample. In general, TGI refers to how far tumour growth fell short of that in controls. One may read the inhibition as the share of the control response that was lost under treatment. High values mean strong suppression, low ones little suppression.

Regarding `O=C(Nc1ccc(OCCN2CCCC2)cc1)c1ccc2ccc3ccc(C(=O)Nc4ccc(OCCN5CCCC5)cc4)nc3c2n1`, the equilibrium dissociation constant (Kd) in assay [1] came to 6700 nM; in assay [2], 1600 nM; in assay [4], 4000 nM. Further, the ΔTm in assay [3] is 7 °C.
Regarding `CN(C)c1ccc(C(=C2C=CC(=[N+](C)C)C=C2)c2ccc(N(C)C)cc2)cc1` [GENTIAN VIOLET], binding in assay [5] was characterised by a dissociation constant (Kd) of 830 nM.
`CC(C)CC[C@H](C)[C@@H]1CC[C@H]2[C@@H]3CC[C@H]4C[C@@H](NC(=O)C[N+]5(C)CCCCC5)CC[C@]4(C)[C@H]3CC[C@@]21C` returned a Kd in assay [6] of 490 nM.
In the case of `COc1ccc2c(c1)CN([C@@H](C)[C@H]1CC[C@H]3[C@@H]4CC[C@H]5C[C@@H](O)CC[C@]5(C)[C@H]4CC[C@]13C)CO2`, the TGI in assay [7] was determined as 65%. This molecule also had a Kd in assay [6] of 1010 nM. In [8], the inhibition amounted to 20%.
With `O=C(Nc1ccc(OCCN2CCCCC2)cc1)c1ccc2ccc3ccc(C(=O)Nc4ccc(OCCN5CCCCC5)cc4)nc3c2n1`, the equilibrium dissociation constant (Kd) was determined as 6700 nM in assay [1], 1600 nM in [2] and 4000 nM in assay [4]. For the same molecule, the ΔTm in assay [3] was 7 °C.
As for `CN(C)CCOc1ccc(NC(=O)c2ccc3ccc4ccc(C(=O)Nc5ccc(OCCN(C)C)cc5)nc4c3n2)cc1`, the figures for the Kd in [1], in [2] and in assay [4] were 6700 nM, 1600 nM and 4000 nM, respectively. In assay [3], the shift in melting temperature (ΔTm) came out at 7 °C.
For the molecule `c1cc2nc3ccc4cc3cc2cc1CNCCNCCNCc1ccc2nc3ccc(cc3cc2c1)CNCCNCCNC4`, the ΔTm in [9] is 33 °C; in assay [10], 15 °C.
